Where only a bound is given, the exact number is not on record here.

For assay [1], the target named is Serine/threonine-protein kinase PAK 6 (Homo sapiens) (UniProt Q9NQU5). The conditions noted are these: at 10 µM.
For assay [2], the target named is Serine/threonine-protein kinase 33 (Homo sapiens) (UniProt Q9BYT3). Put plainly: Selectivity interaction (KinomeScan (DiscoverX)) EUB0000666a STK33. The conditions noted are these: at 10 µM.
For assay [3], the target named is Protein arginine N-methyltransferase 6 (Homo sapiens, UniProt Q96LA8). To be noted: at 10 µM.
Sequence of Protein arginine N-methyltransferase 6 (Q96LA8 whole entry, looked up): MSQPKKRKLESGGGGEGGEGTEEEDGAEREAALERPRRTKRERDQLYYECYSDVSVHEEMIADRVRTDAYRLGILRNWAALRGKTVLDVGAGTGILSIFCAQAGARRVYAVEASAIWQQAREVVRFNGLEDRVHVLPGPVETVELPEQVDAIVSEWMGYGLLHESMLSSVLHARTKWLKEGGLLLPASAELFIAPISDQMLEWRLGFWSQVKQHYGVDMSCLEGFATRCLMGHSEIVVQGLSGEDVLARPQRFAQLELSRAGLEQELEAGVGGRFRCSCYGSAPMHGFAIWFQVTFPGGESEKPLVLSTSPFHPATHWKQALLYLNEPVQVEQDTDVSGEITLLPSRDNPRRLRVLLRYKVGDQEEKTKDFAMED
Assay [4] has as its target T1, Tyrosine-protein kinase TXK (Homo sapiens) (UniProt P42681).
T1 sequence (whole entry): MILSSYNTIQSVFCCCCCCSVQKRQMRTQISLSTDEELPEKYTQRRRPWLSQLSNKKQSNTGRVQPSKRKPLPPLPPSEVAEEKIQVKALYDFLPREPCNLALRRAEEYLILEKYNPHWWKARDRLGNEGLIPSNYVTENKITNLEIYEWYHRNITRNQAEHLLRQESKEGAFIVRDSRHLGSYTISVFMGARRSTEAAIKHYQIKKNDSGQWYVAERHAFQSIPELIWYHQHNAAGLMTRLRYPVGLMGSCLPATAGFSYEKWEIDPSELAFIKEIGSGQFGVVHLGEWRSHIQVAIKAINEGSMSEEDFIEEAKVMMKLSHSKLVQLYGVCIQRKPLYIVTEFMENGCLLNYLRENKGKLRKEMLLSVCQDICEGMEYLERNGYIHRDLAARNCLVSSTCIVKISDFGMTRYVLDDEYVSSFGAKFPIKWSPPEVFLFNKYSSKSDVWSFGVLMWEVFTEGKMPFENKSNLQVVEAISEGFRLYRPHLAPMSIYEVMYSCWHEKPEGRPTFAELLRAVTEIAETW
Put plainly: Selectivity interaction (KinomeScan (DiscoverX)) EUB0000229b TXK. To be noted: at 10 µM.

Assay [5] addresses T2, TGF-beta receptor type-1 (Homo sapiens) (UniProt P36897).
T2 sequence (whole entry): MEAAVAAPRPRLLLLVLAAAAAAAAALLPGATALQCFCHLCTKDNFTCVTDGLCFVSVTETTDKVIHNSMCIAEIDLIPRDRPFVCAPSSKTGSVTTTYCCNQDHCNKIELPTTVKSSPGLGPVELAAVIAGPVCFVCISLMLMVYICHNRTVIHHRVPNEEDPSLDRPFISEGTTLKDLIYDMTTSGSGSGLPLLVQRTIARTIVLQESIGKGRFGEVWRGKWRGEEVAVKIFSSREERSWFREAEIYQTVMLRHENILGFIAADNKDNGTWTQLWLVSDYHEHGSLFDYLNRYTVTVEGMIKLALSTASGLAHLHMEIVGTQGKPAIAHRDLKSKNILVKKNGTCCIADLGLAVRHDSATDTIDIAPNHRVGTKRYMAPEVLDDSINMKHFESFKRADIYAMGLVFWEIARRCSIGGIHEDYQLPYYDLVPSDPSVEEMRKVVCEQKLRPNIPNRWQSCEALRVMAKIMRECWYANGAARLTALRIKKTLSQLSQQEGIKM
Put plainly: Selectivity interaction (KinomeScan (DiscoverX)) EUB0000655a TGFBR1. To be noted: at 10 µM.

Assay [6] addresses Serine/threonine-protein kinase 25 (Homo sapiens) (UniProt O00506). In words: Selectivity interaction (ActivX KiNativ screen (ex vivo kinase selectivity in human PBMCs)) EUB0001619a STK25. To be noted: PBMC, at 1 µM. The assay is classed as cell-based.
The target in assay [7] is Casein kinase I isoform alpha (Homo sapiens, UniProt P48729). Put plainly: Selectivity interaction (ActivX KiNativ screen (kinase selectivity in THP-1 cell lysates)) EUB0000639a CSNK1A1. The class given is subcellular. To be noted: lysate.
Sequence of Casein kinase I isoform alpha (P48729 2-337 limits assumed): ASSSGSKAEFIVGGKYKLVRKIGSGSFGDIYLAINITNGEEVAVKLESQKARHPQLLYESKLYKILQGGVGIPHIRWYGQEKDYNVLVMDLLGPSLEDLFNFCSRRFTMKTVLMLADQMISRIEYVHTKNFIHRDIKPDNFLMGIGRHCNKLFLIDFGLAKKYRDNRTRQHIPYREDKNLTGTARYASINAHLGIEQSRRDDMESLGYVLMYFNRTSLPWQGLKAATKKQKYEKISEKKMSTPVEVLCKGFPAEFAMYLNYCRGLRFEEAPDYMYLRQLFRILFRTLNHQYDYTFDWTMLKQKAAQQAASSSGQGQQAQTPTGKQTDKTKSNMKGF
For assay [8], the target named is Tyrosine-protein kinase CSK (Homo sapiens) (UniProt P41240). Put plainly: Selectivity interaction (ActivX KiNativ screen (kinase selectivity in THP-1 cell lysates)) EUB0000639a CSK. The class given is subcellular. The conditions noted are these: lysate, at 0.04 µM.
Sequence of Tyrosine-protein kinase CSK (Homo sapiens) (P41240 2-450 limits assumed): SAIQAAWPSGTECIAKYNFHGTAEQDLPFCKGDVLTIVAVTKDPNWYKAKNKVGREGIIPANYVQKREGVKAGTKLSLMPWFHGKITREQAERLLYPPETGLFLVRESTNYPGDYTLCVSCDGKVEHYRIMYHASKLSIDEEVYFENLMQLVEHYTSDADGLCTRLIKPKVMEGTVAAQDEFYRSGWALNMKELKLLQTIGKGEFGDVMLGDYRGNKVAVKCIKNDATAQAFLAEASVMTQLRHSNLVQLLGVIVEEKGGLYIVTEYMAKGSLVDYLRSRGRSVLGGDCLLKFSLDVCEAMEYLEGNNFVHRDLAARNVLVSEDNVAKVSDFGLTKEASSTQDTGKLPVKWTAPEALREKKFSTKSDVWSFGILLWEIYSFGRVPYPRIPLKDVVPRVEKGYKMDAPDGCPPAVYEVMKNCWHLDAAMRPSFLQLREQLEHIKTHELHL
In assay [9] the target is Protein kinase C theta type (Homo sapiens, UniProt Q04759). In words: Selectivity interaction (Millipore kinase profiler) EUB0000124b PRKCQ. To be noted: at 10 µM.
Assay [10] concerns the target Mitogen-activated protein kinase kinase kinase 1 (Homo sapiens, UniProt Q13233). In words: Selectivity interaction (KinomeScan (DiscoverX)) EUB0001049a MAP3K1. The conditions noted are these: at 1 µM.
Assay [11] has as its target Epithelial discoidin domain-containing receptor 1 (Homo sapiens) (UniProt Q08345). In words: Selectivity interaction (KinomeScan (DiscoverX)) EUB0001049a DDR1. The conditions noted are these: at 1 µM.
Assay [12] concerns the target T3, Aurora kinase B (Homo sapiens, UniProt Q96GD4). In words: Selectivity interaction (Panel of kinases, GPCRs, ion channels and transporters (enzymatic assay)) EUB0000223bCl AURKB.
In assay [13] the target is T4, Membrane-associated tyrosine- and threonine-specific cdc2-inhibitory kinase (Homo sapiens) (UniProt Q99640).
T4 sequence (whole entry): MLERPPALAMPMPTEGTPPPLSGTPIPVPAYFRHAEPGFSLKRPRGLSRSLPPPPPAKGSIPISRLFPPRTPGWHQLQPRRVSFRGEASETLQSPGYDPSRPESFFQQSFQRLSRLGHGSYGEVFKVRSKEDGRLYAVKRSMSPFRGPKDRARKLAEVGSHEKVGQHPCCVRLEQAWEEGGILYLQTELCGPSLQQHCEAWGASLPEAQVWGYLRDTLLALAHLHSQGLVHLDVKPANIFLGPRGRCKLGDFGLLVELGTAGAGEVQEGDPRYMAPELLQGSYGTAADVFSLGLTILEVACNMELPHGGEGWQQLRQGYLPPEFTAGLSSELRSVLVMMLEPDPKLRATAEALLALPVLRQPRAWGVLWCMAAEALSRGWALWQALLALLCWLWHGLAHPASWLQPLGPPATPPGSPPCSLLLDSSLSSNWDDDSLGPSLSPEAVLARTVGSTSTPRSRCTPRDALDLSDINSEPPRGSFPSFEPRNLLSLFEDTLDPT
Put plainly: Selectivity interaction (Kinase panel (DSF assay)) EUB0001559a PKMYT1. Background: In DSF a fluorescence change marks the thermal transition of the protein.

The target of assay [14] is T3, Aurora kinase B. In words: Selectivity interaction (KinomeScan (DiscoverX)) EUB0001550a AURKB. The conditions noted are these: at 1 µM.

T3 sequence (Q96GD4 whole entry): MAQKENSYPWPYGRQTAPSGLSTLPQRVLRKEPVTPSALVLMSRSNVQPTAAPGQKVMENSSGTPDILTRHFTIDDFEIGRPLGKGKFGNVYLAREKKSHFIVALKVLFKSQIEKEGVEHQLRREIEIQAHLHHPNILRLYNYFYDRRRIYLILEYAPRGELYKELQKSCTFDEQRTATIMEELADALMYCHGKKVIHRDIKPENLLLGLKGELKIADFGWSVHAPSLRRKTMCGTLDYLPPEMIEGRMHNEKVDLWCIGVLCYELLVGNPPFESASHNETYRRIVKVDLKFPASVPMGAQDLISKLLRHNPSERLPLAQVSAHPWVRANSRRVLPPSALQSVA
Sequence of Serine/threonine-protein kinase 25 (Homo sapiens) (O00506 whole entry, looked up, canonical isoform): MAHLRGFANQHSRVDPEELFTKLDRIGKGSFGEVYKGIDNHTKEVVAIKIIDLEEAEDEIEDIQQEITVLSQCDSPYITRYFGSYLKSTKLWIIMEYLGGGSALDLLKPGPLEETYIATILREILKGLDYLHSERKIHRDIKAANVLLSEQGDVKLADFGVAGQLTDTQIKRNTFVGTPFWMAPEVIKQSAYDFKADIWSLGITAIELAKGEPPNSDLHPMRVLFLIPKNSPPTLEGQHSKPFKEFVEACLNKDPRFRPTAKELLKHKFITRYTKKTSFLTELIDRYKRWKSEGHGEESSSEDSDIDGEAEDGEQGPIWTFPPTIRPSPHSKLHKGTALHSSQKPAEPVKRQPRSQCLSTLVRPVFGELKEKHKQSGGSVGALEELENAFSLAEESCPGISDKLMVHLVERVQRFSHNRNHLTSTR
Sequence of Epithelial discoidin domain-containing receptor 1 (Homo sapiens) (Q08345 whole entry, the tested form may be a part): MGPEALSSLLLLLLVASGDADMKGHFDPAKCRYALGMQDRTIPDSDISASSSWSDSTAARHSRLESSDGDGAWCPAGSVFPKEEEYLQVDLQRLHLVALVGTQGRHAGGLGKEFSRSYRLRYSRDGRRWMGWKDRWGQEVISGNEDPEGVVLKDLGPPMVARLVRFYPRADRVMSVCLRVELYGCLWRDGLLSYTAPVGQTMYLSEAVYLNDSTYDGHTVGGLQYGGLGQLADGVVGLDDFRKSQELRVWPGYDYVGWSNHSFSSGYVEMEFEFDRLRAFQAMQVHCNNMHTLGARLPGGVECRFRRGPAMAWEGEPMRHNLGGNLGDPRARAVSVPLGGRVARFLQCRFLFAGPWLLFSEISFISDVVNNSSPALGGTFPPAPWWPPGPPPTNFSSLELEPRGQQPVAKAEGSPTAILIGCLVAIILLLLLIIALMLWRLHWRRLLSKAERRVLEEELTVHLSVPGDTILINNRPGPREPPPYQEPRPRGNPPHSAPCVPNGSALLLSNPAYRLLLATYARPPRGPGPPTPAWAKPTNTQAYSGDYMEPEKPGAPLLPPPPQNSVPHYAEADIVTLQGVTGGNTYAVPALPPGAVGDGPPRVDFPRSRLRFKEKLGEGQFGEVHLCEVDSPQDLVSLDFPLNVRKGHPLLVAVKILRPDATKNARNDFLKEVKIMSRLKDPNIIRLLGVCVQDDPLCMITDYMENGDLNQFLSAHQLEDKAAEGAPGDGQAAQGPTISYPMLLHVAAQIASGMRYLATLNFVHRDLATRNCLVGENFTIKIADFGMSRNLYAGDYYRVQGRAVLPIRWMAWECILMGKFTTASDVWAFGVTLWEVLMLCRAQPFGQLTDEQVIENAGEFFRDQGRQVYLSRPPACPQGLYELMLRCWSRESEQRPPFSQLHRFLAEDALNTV
Sequence of Mitogen-activated protein kinase kinase kinase 1 (Q13233 whole entry, the tested form may be a part): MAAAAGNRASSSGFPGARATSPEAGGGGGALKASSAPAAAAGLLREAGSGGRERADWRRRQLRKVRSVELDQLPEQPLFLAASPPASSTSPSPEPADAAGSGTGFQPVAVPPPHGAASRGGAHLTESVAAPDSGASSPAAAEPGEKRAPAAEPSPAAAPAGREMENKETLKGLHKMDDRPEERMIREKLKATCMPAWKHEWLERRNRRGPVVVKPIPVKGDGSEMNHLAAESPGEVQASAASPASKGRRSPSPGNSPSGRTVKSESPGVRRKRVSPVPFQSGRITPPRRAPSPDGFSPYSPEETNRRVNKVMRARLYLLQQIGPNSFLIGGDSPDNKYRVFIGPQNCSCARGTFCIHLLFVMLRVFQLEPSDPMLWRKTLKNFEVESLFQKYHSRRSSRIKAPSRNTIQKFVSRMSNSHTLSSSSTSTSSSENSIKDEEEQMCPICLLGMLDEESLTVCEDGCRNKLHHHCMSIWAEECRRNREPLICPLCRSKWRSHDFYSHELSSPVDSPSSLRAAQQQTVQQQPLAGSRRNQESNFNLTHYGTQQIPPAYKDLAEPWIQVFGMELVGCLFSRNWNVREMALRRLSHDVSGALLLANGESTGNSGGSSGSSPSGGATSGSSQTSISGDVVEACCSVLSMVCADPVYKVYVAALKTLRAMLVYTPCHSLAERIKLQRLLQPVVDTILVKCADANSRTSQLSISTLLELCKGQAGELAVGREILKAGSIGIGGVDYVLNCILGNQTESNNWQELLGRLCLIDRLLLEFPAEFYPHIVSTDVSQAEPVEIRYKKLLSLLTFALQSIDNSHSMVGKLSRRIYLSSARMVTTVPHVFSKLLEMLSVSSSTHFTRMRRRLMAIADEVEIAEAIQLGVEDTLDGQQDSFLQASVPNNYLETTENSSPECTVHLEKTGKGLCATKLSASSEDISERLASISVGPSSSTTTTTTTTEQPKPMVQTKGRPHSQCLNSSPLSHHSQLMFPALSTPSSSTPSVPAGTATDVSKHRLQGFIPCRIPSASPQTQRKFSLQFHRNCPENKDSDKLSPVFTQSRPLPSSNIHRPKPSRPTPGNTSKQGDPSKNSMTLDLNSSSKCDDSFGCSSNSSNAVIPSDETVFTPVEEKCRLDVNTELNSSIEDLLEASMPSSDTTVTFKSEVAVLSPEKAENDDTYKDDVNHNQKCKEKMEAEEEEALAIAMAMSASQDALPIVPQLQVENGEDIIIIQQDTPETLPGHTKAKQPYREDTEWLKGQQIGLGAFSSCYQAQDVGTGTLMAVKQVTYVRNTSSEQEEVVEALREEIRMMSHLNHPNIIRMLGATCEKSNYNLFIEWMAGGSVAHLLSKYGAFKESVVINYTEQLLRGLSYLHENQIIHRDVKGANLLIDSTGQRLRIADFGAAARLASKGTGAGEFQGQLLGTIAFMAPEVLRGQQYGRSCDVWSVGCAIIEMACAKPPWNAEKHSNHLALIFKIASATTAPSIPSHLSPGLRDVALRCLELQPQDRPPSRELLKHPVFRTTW
Sequence of Serine/threonine-protein kinase PAK 6 (Homo sapiens) (Q9NQU5 whole entry, looked up): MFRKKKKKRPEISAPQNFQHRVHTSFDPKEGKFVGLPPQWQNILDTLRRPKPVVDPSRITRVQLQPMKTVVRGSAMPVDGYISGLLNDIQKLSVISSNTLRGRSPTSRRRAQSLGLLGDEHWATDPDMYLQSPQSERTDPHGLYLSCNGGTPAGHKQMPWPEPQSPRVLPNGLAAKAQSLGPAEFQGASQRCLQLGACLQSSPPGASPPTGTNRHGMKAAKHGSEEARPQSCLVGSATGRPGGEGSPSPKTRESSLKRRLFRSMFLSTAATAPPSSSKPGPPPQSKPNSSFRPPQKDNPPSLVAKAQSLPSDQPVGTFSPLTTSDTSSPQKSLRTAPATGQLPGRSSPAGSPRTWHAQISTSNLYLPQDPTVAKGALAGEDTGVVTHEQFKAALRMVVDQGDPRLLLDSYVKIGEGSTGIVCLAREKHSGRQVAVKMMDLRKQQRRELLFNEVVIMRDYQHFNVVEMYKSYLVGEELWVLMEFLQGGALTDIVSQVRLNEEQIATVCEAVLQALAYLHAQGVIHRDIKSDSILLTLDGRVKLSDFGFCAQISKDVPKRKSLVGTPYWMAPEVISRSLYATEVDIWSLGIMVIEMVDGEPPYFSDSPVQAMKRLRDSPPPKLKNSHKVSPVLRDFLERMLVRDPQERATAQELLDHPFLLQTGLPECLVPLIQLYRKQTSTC

In turn, `Cc1cc([C@@H](C)Nc2ccccc2C(=O)O)c2nc(N3CCOCC3)cc(=O)n2c1` [AZD-6482] came in with a % of control in [1] of 99%.
In [2], `O=C(NOC[C@H](O)CO)c1ccc(F)c(F)c1Nc1ccc(I)cc1F` gave a % of control of 79%.
`CNCCN1CCC(c2cc(CN(C)C(=O)c3cccc(Oc4ccccc4)c3)ccn2)CC1` had a % activity in assay [3] of 42%.
`COc1cc(N(C)c2ccnc3ccc(C(F)(F)F)cc23)cc(OC)c1OC` came in with a % binding in assay [4] of 96%.
In turn, `CN(C)CCOc1ccc(-c2nc(-c3ccncc3)c(-c3ccc4c(c3)CC/C4=N\O)[nH]2)cc1` yielded a % of control in assay [5] of 17%.
For the compound `N#Cc1cccc(-c2c[nH]c3ncnc(N4CCOCC4)c23)c1`, in assay [6], the % of inhibition stood at 61%.
Take `CC[C@@H]1[C@H](F)C(=O)N[C@@H]1COc1nccc2cc(C(N)=O)c(OC)cc12` [ZIMLOVISERTIB]: the % of inhibition in [7] (at 0.01 µM) was -11.5%; in assay [7] (at 0.04 µM) it was -1%; in assay [7] (at 0.2 µM), -9.3%; in assay [7] (at 1 µM), -0.4%; in [7] (at 5 µM), 16.4%; in [8], 7.9%.
For `CC(=O)Nc1cccc(-n2c(=O)n(C3CC3)c(=O)c3c(Nc4ccc(I)cc4F)n(C)c(=O)c(C)c32)c1`, the % of control in [9] was determined as 114%.
On to `COc1cc(Nc2nc(C)cc(-c3cnn4nc(OC)ccc34)n2)cc(C(F)(F)F)c1`, for which the values for the % of control in [10] and in [11] were 86% and 99%, respectively.
Turning to `COc1cc(C(=O)N2CC[C@@H](O)[C@@H](N)C2)cc2nc(-c3cc4ccccc4n3CC3CC3)n(C)c12`, at Aurora kinase B [12], the pXC50 was < 4.5 M.
In assay [13], `CN(C(=O)c1cnn2cccnc12)c1cc2c(cc1N1CCOCC1)C(=O)N(C[C@@H](F)C(C)(C)O)C2` yielded a dTM of 0.4 K.
With `CN(C)CC#Cc1ccc2[nH]c3c(c2c1)-c1nc(N)ncc1CCC3`, the % of control on Aurora kinase B [14] was determined as 23%.
